Data: patent publication US20250223306A1, “TEAD INHIBITORS AND METHODS OF USE” (Sporos BioDiscovery, Inc., priority 2022, published 2025)

Tested on: MSTO-211H xenograft
Experiment: Inhibition of mouse xenograft MSTO-211H tumors
Format: in vivo, BALB/c nude mice
Conditions: 12.5 mg/kg, PO, BID; for Tumor Volume (mean): day 27 (Table 16); for Relative T/C (treated/control relative tumor volume ratio) / TGI: day 27; for Relative T/C (treated/control relative tumor volume ratio): T/C(%) = TRTV / CRTV × 100; for TGI: TGI = [1 − (Ti − T0)/ (Vi − V0)] × 100
Description: This study evaluated the in vivo anti-tumor efficacy of test compounds in BALB/c nude mice for treatment of MSTO-211H xenograft of lung cancer.
• Species: Mus Musculus • Strain: BALB/c nude • Age: 6-8 weeks • Sex: female • Body weight: 18-22 g • Number of animals inoculated with tumor: 80 mice • Number of animals enrolled in the treatment: 36 mice • Number of unenrolled animals: 44 mice • Animal supplier: Beijing Vital River Biotechnology Experimental Animal Co. Ltd Certification number: 20170011010591
The MSTO-211H tumor cells were maintained in RPMI 1640 medium supplemented with 10% Fetal bovine serum and 1% Antibiotic-Antimycotic at 37° C. in an atmosphere of 5% CO2 in air. The tumor cells were routinely subcultured twice weekly by trypsin-EDTA. The cells growing in an exponential growth phase with 95% cell survival or above were harvested, and counted for tumor inoculation.
Each mouse was inoculated subcutaneously at the right flank with MSTO-211H tumor cells (5×10^6+50% matrigel/0.2 mL) for tumor development. Animals were marked with earrings with unique 6 significant figure number for identification. The treatments were started when the average tumor volume reached an average size of 181 mm^3.
The major endpoint was to see if the tumor growth could be delayed or mice could be cured. Tumor volume was measured twice a week in two dimensions using a caliper, and the volume was expressed in mm^3 using the formula: V=0.5 a×b^2 where a and b are the long and short diameters of the tumor, respectively. The tumor size was then used for calculations of T/C value. The TGI value (in percent) or the T/C value (in percent) is an indication of antitumor effectiveness; T and C are the mean tumor volumes or tumor weights of the treated and control groups, respectively, on a given day.
TGI was calculated for each group using the formula: TGI (%)=[1−(Ti−T0)/(Vi−V0)]×100; Ti is the average tumor volume of a treatment group on a given day, To is the average tumor volume of the treatment group on the day of treatment start, Vi is the average tumor volume of the vehicle control group on the same day with Ti, and V0 is the average tumor volume of the vehicle group on the day of treatment start.
Relative T/C (%)=TRTV/CRTV×100 (RTV(%)=Vt/V0×100, Vt is the average tumor volume on a given day, V0 is the average tumor volume on the first day of treatment. TRTV is the RTV of a treatment group, and the CRTV is the RTV of the vehicle control group.)
Summary statistics, including mean and the standard error of the mean (SEM), were provided for the tumor volume of each group at each time point.
Statistical analysis of difference in tumor volume among the groups was conducted on the data obtained at the end of the study.
One-tailed T test was performed to compare tumor volumes between two groups. All data are analyzed using GraphPad Prism 6.0. p<0.05 is considered to be statistically significant.
The antitumor effectiveness of the study was analyzed on PG-D27 when vehicle group reached 588 mm^3.

[1] = day 0 after the start of treatment
[2] = day 3 after the start of treatment
[3] = day 6 after the start of treatment
[4] = day 10 after the start of treatment
[5] = day 13 after the start of treatment
[6] = day 17 after the start of treatment
[7] = day 20 after the start of treatment
[8] = day 23 after the start of treatment
[9] = day 27 after the start of treatment

Row | SMILES | Tumor size (mean) [1] [mm^3] | Tumor size (mean) [2] [mm^3] | Tumor size (mean) [3] [mm^3] | Tumor size (mean) [4] [mm^3] | Tumor size (mean) [5] [mm^3] | Tumor size (mean) [6] [mm^3] | Tumor size (mean) [7] [mm^3] | Tumor size (mean) [8] [mm^3] | Tumor Volume (mean) [mm^3] | Relative T/C (treated/control relative tumor volume ratio) [%] | TGI [%] | Tumor size (mean) [9] [mm^3]
1 | C[C@H](CO)NC(=O)c1cnc2c(C3=CCC(C(F)(F)F)CC3)cccc2c1 (stereo partly drawn) [Compound 7, N—((R)-1-hydroxypropan-2-yl)-8-(4-(trifluoromethyl)cyclohex-1-en-1-yl)quinoline-3-carboxamide] | 181 | 245 | 219 | 124 | 99 | 86 | 109 | 117 | 126 | 21.4 | 113.6 | 126
2 | COC[C@H](CO)NC(=O)c1cnc2c(C3=CCC(C(F)(F)F)CC3)cccc2c1 (stereo partly drawn) [Compound 62, N—((S)-1-hydroxy-3-methoxypropan-2-yl)-8-(4-(trifluoromethyl)cyclohex-1-en-1-yl)quinoline-3-carboxamide] | 181 | 224 | 228 | 149 | 111 | 82 | 88 | 101 | 104 | 17.9 | 119.1 | 104
3 | COc1cc(C2=CCC(C(F)(F)F)CC2)c2ncc(C(=O)N[C@H](C)c3ncco3)cc2c1 (stereo partly drawn) [Compound 109, 6-methoxy-N—((R)-1-(oxazol-2-yl)ethyl)-8-(4-(trifluoromethyl)cyclohex-1-en-1-yl)quinoline-3-carboxamide] | 181 | 216 | 174 | 89 | 59 | 44 | 44 | 46 | 58 | 10.1 | 130.2 | 58
4 | COc1cc(C2=CCC(C(F)(F)F)CC2)c2ncc(C(=O)N[C@H](C)CO)cc2c1 (stereo partly drawn) [Compound 110, N—((R)-1-hydroxypropan-2-yl)-6-methoxy-8-(4-(trifluoromethyl)cyclohex-1-en-1-yl)quinoline-3-carboxamide] | 181 | 207 | 179 | 107 | 75 | 51 | 42 | 53 | 50 | 8.5 | 132.4 | 50
5 | C[C@@H](NC(=O)c1cnc2c(C3=CCC4(CC3)CC4)cccc2c1)c1ncco1 [Compound 166, (R)—N-(1-(oxazol-2-yl)ethyl)-8-(spiro[2.5]oct-5-en-6-yl)quinoline-3-carboxamide] | 181 | 192 | 177 | 153 | 145 | 139 | 148 | 184 | 219 | 38.1 | 90.7 | 219
